The text below walks through data of patent publication EP4663198A1, “COMPOSITION CONTAINING CYCLIC PEPTIDE COMPOUND AND SURFACTANT” (CHUGAI SEIYAKU KABUSHIKI KAISHA, priority 2023, dated 2024).

Each structure is given as a SMILES string.

For this data set the following is noted: Caco-2, pH 6.5.

Description: Caco-2 cells were cultured on 96-well Transwell for 3 weeks. […] From the permeation amount, the permeability coefficient (Caco-2 Papp (cm/sec)) was calculated.
From the measured permeation amount, the permeability coefficient was calculated.

As to `CCO[C@@H]1C[C@H]2C(=O)NC3(CCCC3)C(=O)N[C@@H](C3CCCC3)C(=O)N(C)[C@H](C(=O)N(C)C)CC(=O)N(C)[C@@H](CC(C)C)C(=O)N[C@@H]([C@@H](C)CC)C(=O)N(C)CC(=O)N(C)[C@H]3C/C=C\CCN(C3=O)[C@@H](Cc3ccc(C(F)(F)F)cc3)C(=O)N(C)CC(=O)N[C@@H](CCc3cc(F)c(C(F)(F)F)c(F)c3)C(=O)N2C1` [CP01, (2S,8S,12R,14S,20S,23S,27S,30S,36S,38Z)-20-cyclopentyl-8-[2-[3,5-difluoro-4-(trifluoromethyl)phenyl]ethyl]-12-ethoxy-27-isobutyl-N,N,4,22,26,32,35-heptamethyl-30-[(1S)-1-methylpropyl]-3,6,9,15,18,21,25,28,31,34,42-undecaoxo-2-[(4-(trifluoromethyl)phenyl]methyl]spiro[1,4,7,10,16,19,22,26,29,32,35-undecazatricyclo[34.5.1.0^10,14]dotetraconta-38-en-17,1'-cyclopentane]-23-carboxamide], the Papp A→B came to 0.525 nm/s.

In general, Papp A→B refers to the apparent permeability from the apical to the basolateral side of a cell layer. High values mean fast passage, low ones slow passage.
